# Laboratory results: US9340590B2 (priority 2011, dated 2016)
# Like-named read-outs stand apart in the source and are kept apart here. Positions of bridges follow the written chain, without caps; N, C: chain ends. Non-standard residues stand in square brackets, D forms with d. Residues, ends and D or L forms follow the SMILES beside them. Abu = CC[C@H](N)C(=O)O
# Columns and labels:
# Test in all cases: cell-based
# hNav1.7 = hNav1.7 (Homo sapiens, UniProt Q15858); format: cell-based; details: IonWorks Quattro, read-out: IWQ Use Nav1.7
# hNav1.3 = hNav1.3 (Homo sapiens, UniProt Q9NY46); details: IonWorks Quattro, read-out: IWQ Use Nav1.3
# hNav1.5 = hNav1.5 (Homo sapiens, UniProt Q14524); details: IonWorks Quattro, read-out: IWQ Use Nav1.5
# [1] = use-dependent protocol, hNav1.7
# [2] = use-dependent protocol, hNav1.3
# [3] = use-dependent protocol, hNav1.5
# [4] = clamped to −110 mV, depolarized to −10 mV, 5 min after compound, n=2
# Sequence of hNav1.7 (Q15858 whole entry, looked up): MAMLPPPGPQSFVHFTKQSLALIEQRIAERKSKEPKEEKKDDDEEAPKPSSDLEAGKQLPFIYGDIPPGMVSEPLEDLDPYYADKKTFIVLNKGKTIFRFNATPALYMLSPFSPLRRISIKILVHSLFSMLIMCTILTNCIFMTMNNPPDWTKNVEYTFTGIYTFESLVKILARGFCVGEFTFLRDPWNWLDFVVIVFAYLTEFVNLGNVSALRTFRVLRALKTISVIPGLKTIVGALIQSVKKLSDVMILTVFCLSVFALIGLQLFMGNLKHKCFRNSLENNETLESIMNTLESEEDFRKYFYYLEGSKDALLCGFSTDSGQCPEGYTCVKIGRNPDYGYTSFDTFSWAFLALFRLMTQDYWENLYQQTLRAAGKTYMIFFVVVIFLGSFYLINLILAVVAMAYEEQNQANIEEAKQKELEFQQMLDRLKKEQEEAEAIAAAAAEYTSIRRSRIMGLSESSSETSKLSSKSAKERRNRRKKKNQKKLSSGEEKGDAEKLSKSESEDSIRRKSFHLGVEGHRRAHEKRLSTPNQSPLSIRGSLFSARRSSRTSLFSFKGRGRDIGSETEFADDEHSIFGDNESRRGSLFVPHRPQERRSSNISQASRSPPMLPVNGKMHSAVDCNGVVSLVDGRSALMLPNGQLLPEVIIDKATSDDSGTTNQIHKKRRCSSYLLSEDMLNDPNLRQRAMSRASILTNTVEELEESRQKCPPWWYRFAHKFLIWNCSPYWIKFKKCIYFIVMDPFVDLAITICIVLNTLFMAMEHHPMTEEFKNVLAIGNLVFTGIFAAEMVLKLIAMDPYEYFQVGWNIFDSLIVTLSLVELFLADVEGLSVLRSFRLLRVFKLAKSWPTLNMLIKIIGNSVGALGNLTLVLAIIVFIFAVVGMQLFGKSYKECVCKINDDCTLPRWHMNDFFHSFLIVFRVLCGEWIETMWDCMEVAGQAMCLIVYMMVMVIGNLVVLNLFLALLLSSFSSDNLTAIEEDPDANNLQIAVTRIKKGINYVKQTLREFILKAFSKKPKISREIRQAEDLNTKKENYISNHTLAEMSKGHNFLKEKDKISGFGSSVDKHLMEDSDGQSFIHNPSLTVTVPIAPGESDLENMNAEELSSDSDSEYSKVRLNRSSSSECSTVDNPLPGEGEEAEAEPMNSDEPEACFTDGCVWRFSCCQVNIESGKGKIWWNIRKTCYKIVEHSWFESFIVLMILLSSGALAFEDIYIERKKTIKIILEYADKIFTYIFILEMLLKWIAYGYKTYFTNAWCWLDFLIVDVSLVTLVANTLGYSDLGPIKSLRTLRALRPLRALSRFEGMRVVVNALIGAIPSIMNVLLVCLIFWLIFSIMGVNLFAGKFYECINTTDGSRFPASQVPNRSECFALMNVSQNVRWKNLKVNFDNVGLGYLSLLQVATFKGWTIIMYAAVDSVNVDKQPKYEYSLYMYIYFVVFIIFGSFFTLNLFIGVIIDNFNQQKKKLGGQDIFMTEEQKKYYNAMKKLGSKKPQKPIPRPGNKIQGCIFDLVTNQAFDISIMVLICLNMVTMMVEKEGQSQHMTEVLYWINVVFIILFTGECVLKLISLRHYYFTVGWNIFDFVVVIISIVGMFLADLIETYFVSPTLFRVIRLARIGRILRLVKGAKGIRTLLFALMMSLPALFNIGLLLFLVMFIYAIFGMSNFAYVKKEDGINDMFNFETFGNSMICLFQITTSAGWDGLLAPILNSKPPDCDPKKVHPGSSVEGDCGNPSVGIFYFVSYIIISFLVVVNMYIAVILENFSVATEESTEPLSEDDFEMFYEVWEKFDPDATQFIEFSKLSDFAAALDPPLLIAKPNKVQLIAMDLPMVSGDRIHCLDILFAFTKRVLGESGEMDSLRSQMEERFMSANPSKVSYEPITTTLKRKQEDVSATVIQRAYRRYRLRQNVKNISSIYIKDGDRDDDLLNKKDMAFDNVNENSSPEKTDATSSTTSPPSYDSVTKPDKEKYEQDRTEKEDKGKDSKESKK
# Sequence of hNav1.3 (Q9NY46 whole entry, looked up): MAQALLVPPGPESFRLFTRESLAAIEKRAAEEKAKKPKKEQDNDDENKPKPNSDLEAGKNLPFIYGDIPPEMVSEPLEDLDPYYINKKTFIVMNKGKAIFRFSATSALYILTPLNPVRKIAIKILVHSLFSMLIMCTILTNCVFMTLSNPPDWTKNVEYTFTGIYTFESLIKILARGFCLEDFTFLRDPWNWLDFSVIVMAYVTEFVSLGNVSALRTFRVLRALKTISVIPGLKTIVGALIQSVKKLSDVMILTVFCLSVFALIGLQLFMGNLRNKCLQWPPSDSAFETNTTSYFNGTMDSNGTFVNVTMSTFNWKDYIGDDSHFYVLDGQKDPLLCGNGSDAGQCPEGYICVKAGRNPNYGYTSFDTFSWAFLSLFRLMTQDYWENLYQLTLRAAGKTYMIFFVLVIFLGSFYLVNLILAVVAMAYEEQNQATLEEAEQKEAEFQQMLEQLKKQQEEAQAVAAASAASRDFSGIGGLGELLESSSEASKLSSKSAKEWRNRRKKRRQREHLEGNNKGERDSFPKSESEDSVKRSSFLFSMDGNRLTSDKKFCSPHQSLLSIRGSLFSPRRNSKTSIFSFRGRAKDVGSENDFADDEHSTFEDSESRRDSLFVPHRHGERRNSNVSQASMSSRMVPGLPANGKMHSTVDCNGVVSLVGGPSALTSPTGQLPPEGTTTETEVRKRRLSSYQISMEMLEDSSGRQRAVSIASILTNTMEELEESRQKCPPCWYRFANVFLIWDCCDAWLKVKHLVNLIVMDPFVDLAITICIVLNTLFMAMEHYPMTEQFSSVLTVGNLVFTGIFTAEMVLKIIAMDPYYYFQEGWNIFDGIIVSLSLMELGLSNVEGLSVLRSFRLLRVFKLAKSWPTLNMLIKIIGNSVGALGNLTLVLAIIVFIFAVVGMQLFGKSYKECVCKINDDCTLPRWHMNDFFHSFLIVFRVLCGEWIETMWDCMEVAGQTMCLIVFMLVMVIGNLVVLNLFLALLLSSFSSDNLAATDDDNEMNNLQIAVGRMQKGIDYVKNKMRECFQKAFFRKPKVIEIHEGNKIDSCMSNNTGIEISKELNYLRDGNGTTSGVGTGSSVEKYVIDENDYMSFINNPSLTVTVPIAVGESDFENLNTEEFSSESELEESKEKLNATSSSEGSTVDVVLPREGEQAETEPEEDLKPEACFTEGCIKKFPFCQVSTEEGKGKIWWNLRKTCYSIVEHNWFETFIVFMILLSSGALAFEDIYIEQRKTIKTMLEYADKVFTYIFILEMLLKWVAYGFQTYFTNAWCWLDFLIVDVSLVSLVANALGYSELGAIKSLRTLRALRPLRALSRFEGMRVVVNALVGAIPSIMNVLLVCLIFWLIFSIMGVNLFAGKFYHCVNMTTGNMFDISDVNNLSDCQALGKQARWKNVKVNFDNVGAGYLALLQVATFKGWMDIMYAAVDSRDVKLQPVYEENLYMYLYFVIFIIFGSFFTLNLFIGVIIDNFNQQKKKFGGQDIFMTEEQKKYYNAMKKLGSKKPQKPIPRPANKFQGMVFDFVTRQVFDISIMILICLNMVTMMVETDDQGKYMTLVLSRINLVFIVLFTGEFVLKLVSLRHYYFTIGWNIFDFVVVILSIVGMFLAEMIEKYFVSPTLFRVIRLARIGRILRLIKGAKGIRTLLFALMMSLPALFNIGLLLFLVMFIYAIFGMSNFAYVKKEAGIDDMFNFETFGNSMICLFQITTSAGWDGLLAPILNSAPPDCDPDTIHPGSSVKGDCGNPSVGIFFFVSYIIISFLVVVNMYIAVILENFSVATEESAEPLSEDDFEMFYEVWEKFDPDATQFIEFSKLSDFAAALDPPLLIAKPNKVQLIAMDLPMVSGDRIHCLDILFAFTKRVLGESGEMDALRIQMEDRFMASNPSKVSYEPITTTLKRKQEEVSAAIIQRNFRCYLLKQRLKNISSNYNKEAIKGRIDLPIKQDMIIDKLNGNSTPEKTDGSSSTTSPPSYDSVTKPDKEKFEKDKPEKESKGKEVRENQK
smiles,measurement,setting,value
"CC[C@@H]1NC(=O)CNC(=O)[C@H](CC(C)C)NC(=O)[C@@H](NC(=O)[C@@H](N)CC(=O)O)CSSC[C@@H]2NC(=O)[C@@H]3CSSC[C@@H](C(=O)N[C@@H](CCCCN)C(=O)N[C@@H](Cc4ccc(O)cc4)C(=O)N[C@H](C(=O)N[C@@H](Cc4ccccc4)C(N)=O)C(C)C)NC(=O)[C@H](Cc4c[nH]c5ccccc45)NC(=O)[C@H](CCC(=O)O)NC(=O)[C@H](Cc4c[nH]cn4)NC(=O)[C@H]([C@@H](C)O)NC(=O)[C@H](CCCNC(=N)N)NC(=O)[C@H](CO)NC(=O)[C@H](CSSC[C@H](NC(=O)[C@H](CCCCN)NC(=O)[C@H](CCCNC(=N)N)NC(=O)[C@H](CCSC)NC1=O)C(=O)N[C@@H]([C@@H](C)CC)C(=O)N1CCC[C@H]1C(=O)N[C@@H](CC(=O)O)C(=O)N[C@@H](CC(N)=O)C(=O)N[C@@H](CC(=O)O)C(=O)N[C@@H](CCCCN)C(=O)N3)NC(=O)[C@H](C(C)C)NC(=O)[C@H](CC(C)C)NC(=O)[C@H](CC(N)=O)NC(=O)[C@@H]1CCCN1C(=O)[C@H](CCCNC(=N)N)NC2=O [compound 706] (H-DCLG[Abu]MRKCIPDNDKCCRPNLVCSRTHEWCKYVF-NH2; disulfide 2-17, 9-23, 16-30)",IC50,hNav1.7; [1],1400 nM
same,IC50,hNav1.3; [2],> 5000 nM
same,IC50,hNav1.5; [3],> 50 µM
CSCC[C@@H]1NC(=O)[C@H](Cc2ccccc2)NC(=O)CNC(=O)[C@H](CC(C)C)NC(=O)[C@@H](NC(=O)[C@@H](N)CC(=O)O)CSSC[C@@H]2NC(=O)[C@@H]3CSSC[C@@H](C(=O)N[C@@H](CCCCN)C(=O)N[C@@H](Cc4cccc5ccccc45)C(=O)N[C@H](C(=O)N[C@@H](Cc4ccccc4)C(N)=O)C(C)C)NC(=O)[C@H](Cc4c[nH]c5ccccc45)NC(=O)[C@H](CCCCN)NC(=O)[C@H](Cc4c[nH]cn4)NC(=O)[C@H]([C@@H](C)O)NC(=O)[C@H](CCCNC(=N)N)NC(=O)[C@H](CO)NC(=O)[C@H](CSSC[C@H](NC(=O)[C@H](CCCCN)NC(=O)[C@H](CCCNC(=N)N)NC1=O)C(=O)N[C@@H](Cc1cccc4ccccc14)C(=O)N1CCC[C@H]1C(=O)N[C@@H](CC(=O)O)C(=O)N[C@@H](CC(N)=O)C(=O)N[C@@H](CC(=O)O)C(=O)N[C@@H](CCCCN)C(=O)N3)NC(=O)[C@H](C(C)C)NC(=O)[C@H](CC(C)C)NC(=O)[C@H](CC(N)=O)NC(=O)[C@@H]1CCCN1C(=O)[C@H](CCCNC(=N)N)NC2=O [compound 452],IC50,"hNav1.7; use-dependent block, hNav1.7",5 nM
same,IC50,"hNav1.3; use-dependent block, hNav1.3",3 nM
same,IC50,"hNav1.5; use-dependent block, hNav1.5",> 5 µM
"CC[C@H](C)[C@@H]1NC(=O)[C@@H]2CSSC[C@@H]3NC(=O)[C@H](C(C)C)NC(=O)[C@H](CC(C)C)NC(=O)[C@H](CC(N)=O)NC(=O)[C@@H]4CCCN4C(=O)[C@H](CCCNC(=N)N)NC(=O)[C@H](CSSC[C@H](NC(=O)[C@@H](N)CC(=O)O)C(=O)N[C@@H](CC(C)C)C(=O)NCC(=O)N[C@@H](Cc4ccccc4)C(=O)N[C@@H](CCSC)C(=O)N[C@@H](CCCNC(=N)N)C(=O)N[C@@H](CCCCN)C(=O)N2)NC(=O)[C@H](CSSC[C@@H](C(=O)N[C@@H](CCCCN)C(=O)N[C@@H](Cc2ccc(O)cc2)C(=O)N[C@H](C(=O)N[C@@H](Cc2ccccc2)C(N)=O)C(C)C)NC(=O)[C@H](Cc2c[nH]c4ccccc24)NC(=O)[C@H](CCCCN)NC(=O)[C@H](Cc2cnc[nH]2)NC(=O)[C@H]([C@@H](C)O)NC(=O)[C@H](CCCNC(=N)N)NC(=O)[C@H](CO)NC3=O)NC(=O)[C@H](CCCCN)NC(=O)[C@H](CC(=O)O)NC(=O)[C@H](CC(N)=O)NC(=O)[C@H](CC(=O)O)NC(=O)[C@H](C)NC1=O [compound 46] (H-DCLGFMRKCIADNDKCCRPNLVCSRTHKWCKYVF-NH2; disulfide 2-17, 9-23, 16-30)",IC50,hNav1.7; Use,210 nM
same,IC50,hNav1.3; Use,180 nM
same,IC50,hNav1.5; Use,16.1 µM
CC[C@H](C)[C@@H]1NC(=O)[C@@H]2CSSC[C@@H]3NC(=O)[C@H](C(C)C)NC(=O)[C@H](CC(C)C)NC(=O)[C@H](CC(N)=O)NC(=O)[C@@H]4CCCN4C(=O)[C@H](CCCNC(=N)N)NC(=O)[C@H](CSSC[C@H](NC(=O)[C@@H](N)CC(=O)O)C(=O)N[C@@H](CC(C)C)C(=O)NCC(=O)N[C@@H](Cc4ccccc4)C(=O)N(C)[C@@H](Cc4c[nH]c5ccccc45)C(=O)N[C@@H](CCCNC(=N)N)C(=O)N[C@@H](CCCCN)C(=O)N2)NC(=O)[C@H](CSSC[C@@H](C(=O)N[C@@H](CCCCN)C(=O)N[C@@H](Cc2ccc(O)cc2)C(=O)N[C@H](C(=O)N[C@@H](Cc2ccccc2)C(N)=O)C(C)C)NC(=O)[C@H](Cc2c[nH]c4ccccc24)NC(=O)[C@H](CCCCN)NC(=O)[C@H](Cc2c[nH]cn2)NC(=O)[C@H]([C@@H](C)O)NC(=O)[C@H](CCCNC(=N)N)NC(=O)[C@H](CO)NC3=O)NC(=O)[C@H](CCCCN)NC(=O)[C@H](CC(=O)O)NC(=O)[C@H](CC(N)=O)NC(=O)[C@H](CC(=O)O)NC(=O)[C@@H]2CCCN2C1=O [SEQ ID NO: 289],IC50,hNav1.7; [4],140 nM
same,IC50,hNav1.3; [4],240 nM
same,IC50,hNav1.5; [4],21.4 µM
CC[C@H](C)[C@@H]1NC(=O)[C@@H]2CSSC[C@@H]3NC(=O)[C@H](C(C)C)NC(=O)[C@H](CC(C)C)NC(=O)[C@H](CC(N)=O)NC(=O)[C@@H]4CCCN4C(=O)[C@H](CCCNC(=N)N)NC(=O)[C@H](CSSC[C@H](NC(=O)[C@@H](N)CC(=O)O)C(=O)N[C@@H](CC(C)C)C(=O)NCC(=O)N[C@@H](Cc4ccc(C(C)(C)C)cc4)C(=O)N[C@@H](CC(C)C)C(=O)N[C@@H](CCCNC(=N)N)C(=O)N[C@@H](CCCCN)C(=O)N2)NC(=O)[C@H](CSSC[C@@H](C(=O)N[C@@H](CCCCN)C(=O)N[C@@H](Cc2ccc(O)cc2)C(=O)N[C@H](C(=O)N[C@@H](Cc2ccccc2)C(N)=O)C(C)C)NC(=O)[C@H](Cc2c[nH]c4ccccc24)NC(=O)[C@H](CCCCN)NC(=O)[C@H](Cc2c[nH]cn2)NC(=O)[C@H]([C@@H](C)O)NC(=O)[C@H](CCCNC(=N)N)NC(=O)[C@H](CO)NC3=O)NC(=O)[C@H](CCCCN)NC(=O)[C@H](CC(=O)O)NC(=O)[C@H](CC(N)=O)NC(=O)[C@H](CC(=O)O)NC(=O)[C@@H]2CCCN2C1=O [compound 671],IC50,hNav1.7; [1],140 nM
same,IC50,hNav1.3; [2],50 nM
same,IC50,hNav1.5; [3],> 5 µM
"CC[C@H](C)[C@@H]1NC(=O)[C@@H]2CSSC[C@@H]3NC(=O)[C@H](C(C)C)NC(=O)[C@H](CC(C)C)NC(=O)[C@H](CC(N)=O)NC(=O)[C@@H]4CCCN4C(=O)[C@H](CCCNC(=N)N)NC(=O)[C@H](CSSC[C@H](NC(=O)[C@@H](N)CC(=O)O)C(=O)N[C@@H](CC(C)C)C(=O)NCC(=O)N[C@@H](Cc4ccccc4)C(=O)N[C@@H](CCSC)C(=O)N[C@@H](CCCNC(=N)N)C(=O)N[C@@H](CCCCN)C(=O)N2)NC(=O)[C@H](CSSC[C@@H](C(=O)N[C@@H](CCCCN)C(=O)N[C@@H](Cc2ccc(O)cc2)C(=O)N[C@H](C(=O)N[C@@H](Cc2ccccc2)C(N)=O)C(C)C)NC(=O)[C@H](Cc2c[nH]c4ccccc24)NC(=O)[C@H](CCCCN)NC(=O)[C@H](Cc2c[nH]cn2)NC(=O)[C@H](CO)NC(=O)[C@H](CCCNC(=N)N)NC(=O)[C@H](CO)NC3=O)NC(=O)[C@H](CCCCN)NC(=O)[C@H](CC(=O)O)NC(=O)[C@H](CC(N)=O)NC(=O)[C@H](CC(=O)O)NC(=O)[C@@H]2CCCN2C1=O [compound 338] (H-DCLGFMRKCIPDNDKCCRPNLVCSRSHKWCKYVF-NH2; disulfide 2-17, 9-23, 16-30)",IC50,"hNav1.7; Table 22, use, […]",100 nM
same,IC50,"hNav1.3; Table 22, use, […]",90 nM
same,IC50,"hNav1.5; Table 22, use, […]",12.3 µM
"CC[C@H](C)[C@@H]1NC(=O)[C@@H]2CSSC[C@@H]3NC(=O)[C@H](C(C)C)NC(=O)[C@H](CC(C)C)NC(=O)[C@H](CC(N)=O)NC(=O)[C@@H]4CCCN4C(=O)[C@H](CCCNC(=N)N)NC(=O)[C@H](CSSC[C@H](NC(=O)[C@@H](N)CC(=O)O)C(=O)N[C@@H](CC(C)C)C(=O)NCC(=O)N[C@@H](C)C(=O)N[C@@H](CCSC)C(=O)N[C@@H](CCCNC(=N)N)C(=O)N[C@@H](CCCCN)C(=O)N2)NC(=O)[C@H](CSSC[C@@H](C(=O)N[C@@H](CCCCN)C(=O)N[C@@H](Cc2ccc(O)cc2)C(=O)N[C@H](C(=O)N[C@@H](Cc2ccccc2)C(N)=O)C(C)C)NC(=O)[C@H](C)NC(=O)[C@H](CCCCN)NC(=O)[C@H](Cc2c[nH]cn2)NC(=O)[C@H]([C@@H](C)O)NC(=O)[C@H](CCCNC(=N)N)NC(=O)[C@H](CO)NC3=O)NC(=O)[C@H](CCCCN)NC(=O)[C@H](CC(=O)O)NC(=O)[C@H](CC(N)=O)NC(=O)[C@H](CC(=O)O)NC(=O)[C@@H]2CCCN2C1=O [compound 434] (H-DCLGAMRKCIPDNDKCCRPNLVCSRTHKACKYVF-NH2; disulfide 2-17, 9-23, 16-30)",IC50,"hNav1.7; use-dependent block, hNav1.7",> 5000 nM
same,IC50,"hNav1.3; use-dependent block, hNav1.3",> 5000 nM
same,IC50,"hNav1.5; use-dependent block, hNav1.5",> 5 µM
